Laboratory results from PMC12610721, “The Action of Cannabidiol on Doxycycline Cytotoxicity in Human Cells—In Vitro Study” (Molecules, 2025).
Where two headings read alike, the source gives them in different places.

Legend:
HEK-293 cells [1] = test: proliferation, total cellular protein (TPC assay)
Protocol: (§1) This innovative study evaluated the effects of cannabidiol (Cannabis sativa L.) on doxycycline-induced toxicity using three cell cultures: neural—SH-SY5Y, liver—HepG2, and kidney—HEK-293. […] A series of cytotoxicity assays included assessments of mitochondrial activity, lysosomal activity, cell membrane integrity, DNA synthesis, and cell proliferation. Based on the obtained results, IC50 values for doxycycline, both in monotherapy and in combination with CBD, were calculated, along with evaluations of ROS, death of cells, and morphology. The interaction between the drug and CBD was further analyzed by the combination index (CI).
(§2) This assay is based on staining total cellular proteins as a measure of proliferation. After incubation, the medium containing the test compounds was removed, and 100 µL of Coomassie Brilliant Blue R-250 dye was added to each well. The plate was shaken for 10 min. The dye was then removed, and the cells were rinsed twice with 100 µL of washing solution (glacial acetic acid/ethanol/water, 5:10:85, v/v/v). Next, 100 µL of desorbing solution (1 M potassium acetate) was added, and the plate was shaken again for 10 min. Absorbance was measured at 595 nm using the Synergy 2 Multi-Mode Microplate Reader (BioTek® Instruments Inc., Winooski, VT, USA), with a blank as reference. Cytotoxicity was expressed as a percentage relative to the negative control.
(§3) To determine the types of interaction that occur when cells are exposed to combinations of DOX and CBD, the method established by Chou and Talalay was used in this study. The dose–effect relationships of the individual and combined test compounds were modeled biometrically using the Median-Effect Equation based on the Mass Action Law.fa/fu = (D/Dm)^m
(§4) In this isobolographic analysis, the combination index (CI) is a quantitative parameter used to evaluate the type and strength of interactions between multiple compounds. For all combinations, CI values were calculated across a range of affected fractions (Fa) from 0.05 to 0.95 (corresponding to 5–95% toxicity). CI values of 0.9–1.1, <0.9, and >1.1 indicate additive, synergistic, and antagonistic effects, respectively.
(§5) The study was conducted in three independent experiments (n = 3). […] Cytotoxicity data were analyzed using one-way analysis of variance (ANOVA), followed by Dunnett’s post hoc test to assess significance relative to the negative control. The half-maximal inhibitory concentration (IC50), representing the drug or drug–CBD mixture concentration required to inhibit cell viability by 50%, was calculated using GraphPad Prism 5.0. Statistical comparisons between IC50 values were performed using ANOVA followed by Tukey’s post hoc test. Differences were considered statistically significant at p ≤ 0.05.

HepG2 cells [2] = test: proliferation, total cellular protein (TPC assay)
Protocol: as §1, §2, §3, §4, §5

SH-SY5Y cells = test: proliferation, total cellular protein (TPC assay); conditions: 72 h
Protocol: as §1, §2, §3, §4, §5

HepG2 cells [3] = conditions: 72 h exposure, cited from earlier work
HEK-293 cells [4] = tested on: HEK-293 cells; parameters: method as in earlier work; conditions: cited from earlier work; for IC50: HEK-293, 48 h of exposure

## C[C@H]1c2cccc(O)c2C(=O)C2=C(O)[C@]3(O)C(=O)C(C(N)=O)=C(O)[C@@H](N(C)C)[C@@H]3[C@@H](O)[C@@H]21 [DOX, doxycycline hyclate]
HEK-293 cells [1]; HEK-293, TPC, 72 h
  doxycycline concentration that inhibited cell proliferation: 12.5 µg/mL
HEK-293 cells [1]; Homo sapiens, HEK293, 72 h
  IC50: 14.8 ± 1.3 µg/mL
HepG2 cells [2]; HepG2, TPC, 72 h
  doxycycline concentration that reduced cell proliferation: 50 µg/mL
HepG2 cells [2]; Homo sapiens, HepG2, 72 h
  IC50: > 200 µg/mL
SH-SY5Y cells; Homo sapiens
  IC50: > 200 µg/mL
SH-SY5Y cells; TPC
  doxycycline concentration at which cell proliferation decreased: 50 µg/mL
HepG2 cells [3]; converted value in brackets
  IC50 of mitochondrial inhibition: 10.3 µg/mL
HepG2 cells [3]; read-out: IC50 of mitochondrial inhibition
  IC50: 20 µM
HEK-293 cells [4]; HEK-293, 20 µg/mL
  effect on cell viability: reduces the viability
  induction of apoptosis: does not induce apoptosis
HEK-293 cells [4]; converted value in brackets
  IC50: 6.05 µg/mL
HEK-293 cells [4]; read-out: IC50
  IC50: 11.8 µM
